Experimental data published in patent US20240252583A1, “Compositions and Methods for Treating Persistent Postsurgical Pain” (priority 2021, published 2024).
Where two headings read alike, the source gives them in different places.

Columns and labels:
[1] = Brain entry and pharmacokinetics of RAP-103 after oral gavage and IV dosing; assay type: in vivo, rats and guinea pigs
[2] = Plasma pharmacokinetics and acute tolerability of RAP-103 in non-human primates; assay type: in vivo, Rhesus macaques (Macaca mulatta)
Procedure: In non-human primates (rhesus monkeys) RAP-103 was dosed once on Day 1 by intravenous bolus injection at 1 mg/kg and plasma levels determined. […] Drug in plasma after a single IV dose (1 mg/Kg) was still measurable at anticipated therapeutic levels 96 hrs. post-dose in non-human primates as shown in FIG. 2B.

[3] = tested on: STZ-induced diabetic neuropathic pain
Procedure: Chronic pain development was determined with behavior and molecular/cellular testing and inflammatory reactions in Streptozotocin (STZ)-induced diabetic rats treated with RAP-103.
(§1) Induction and assessment of diabetes in rats: Rats were fasted overnight and given a single intraperitoneal injection of STZ (60 mg/kg, Sigma-Aldrich) in citrate buffer (pH 4.5) to induce type I diabetes. The induction of diabetes was confirmed 72 h post-injection by blood glucose levels (Contour® blood glucose diagnostic kit, Bayer HealthCare, Canada). Body weight and blood glucose levels were measured before and 3 days post-STZ injection and once a week for three weeks post-diabetes induction. Only rats with blood glucose concentration consistently higher than 300 mg/dl were used for the study. Rats used for the study were monitored for persistent mechanical and cold allodynia (up to five months post-induction) and only animals with persistent pain were used.
This solution was prepared freshly for each experiment and kept for 8 days (duration of one experiment) at room temperature. Appropriate concentration for each dose was adjusted accordingly.
Treatment paradigms: Autoclaved water (vehicle) or RAP-103 (0.004, 0.02, 0.1 or 0.5 mg/kg b.w.) was administered daily for 8 days by oral gavage to rats with stable mechanical and cold allodynia (n=5 H2O; n=7 RAP-103).
Assessment of neuropathic pain: Tactile allodynia, mechanical sensitivity was assessed using calibrated. Animals were placed in plexiglass boxes on an elevated metal mesh floor and allowed 60 min for habituation before testing. A series of von Frey filaments with logarithmically incrementing stiffness (Stoelting) was applied perpendicular to the midplantar region of the hind paw. The 50% paw withdrawal threshold was determined using Dixon's up-down method. Withdrawal thresholds of both paws were averaged as one single value per animal.
Cold Allodynia: was assessed using the same apparatus as the von Frey test. Rats were allowed to adapt to the testing environment for at least 10 min. Then, a drop (50 μl) of acetone was applied with a glass syringe fitted with a blunted needle at the centre of the plantar face of a hind paw. Responses were monitored during 1 min after acetone application and were graded according to a 4-point scale: 0, no response; 1, quick withdrawal, flick or stamp of the paw; 2, prolonged withdrawal or repeated flicking of the paw; 3, repeated flicking of the paw with persistent licking directed at the ventral side of the paw. Cumulative scores were then obtained by summing the four scores for each rat, the minimum score being 0 (no response to any of the four trials) and the maximum possible score being 12 (repeated flicking and licking of paws on each of the four trials). Rats were habituated to the testing environment. […] All data is presented as means±SEM. Statistical analysis was performed by two-way ANOVA followed by Bonferroni post-tests. The criterion for statistical significance was p<0.05.

[4] = tested on: STZ-induced diabetic neuropathic pain; conditions: oral administration for 7 days, FIG. 4
Procedure: as §1, with “used. […]” for “used.”
Cold Allodynia: was assessed using the same apparatus as the von Frey test. Rats were allowed to adapt to the testing environment for at least 10 min. Then, a drop (50 μl) of acetone was applied with a glass syringe fitted with a blunted needle at the centre of the plantar face of a hind paw. Responses were monitored during 1 min after acetone application and were graded according to a 4-point scale: 0, no response; 1, quick withdrawal, flick or stamp of the paw; 2, prolonged withdrawal or repeated flicking of the paw; 3, repeated flicking of the paw with persistent licking directed at the ventral side of the paw. […]

[5] = tested on: post-incisional mechanical allodynia; conditions: RAP-103 0.5 mg/kg i.p.
Source text: Data are expressed as mean±standard error of the mean (S.E.M.), and p<0.05 was accepted as statistically significant.

[6] = tested on: stress from PPSP; conditions: oral pill, daily administration for one week
Procedure: A subject is diagnosed with stress from PPSP. A subject is prescribed a dosing regimen of a pharmaceutical composition. The pharmaceutical composition comprises a therapeutically effective amount of RAP-103. RAP-103 is administered orally as a pill to treat the stress from PPSP.

[7] = tested on: obesity; conditions: oral, daily administration for 3 weeks
Procedure: A subject is diagnosed with obesity. The subject is prescribed a dosing regimen of a pharmaceutical composition. The pharmaceutical composition comprises a therapeutically effective amount of RAP-103. RAP-103 is administered orally to treat obesity.

[8] = Plasma bioavailability and elimination half-life of RAP-103 (species not stated); assay type: in vivo; conditions: oral, i.p., ss, and IV dosing
[9] = tested on: mRNAs encoding CCL2, CCL3, CCR2, CCR5, IL1β, and TNFα
[10] = molecular target: CX3CR1 (Homo sapiens, UniProt P49238); conditions: CX3CL1 2.5 nM, FIG. 8
Procedure: All peptides were purified to >95% homogeneity and verified by HPLC isolation, amino acid analysis, and mass spectroscopy. Peptides were dissolved in sterile water and stored as frozen (−20° C.) aliquots at 0.1 mM until use. Chemotaxis was assayed in 96-well plates (NeuroProbe, Cabin John, MD) with […] pore size, PVP-free membranes. Purified human monocytes (>95%) prepared from healthy adult human donors by centrifugal elutriation (>95% pure) were resuspended in chemotaxis assay buffer (DMEM supplemented with 0.1% BSA) at a density of 2×10^6 cells/ml. Cells were labelled with 1.0 μM Calcein AM (Invitrogen) for 30 minutes at 37° C., 5% CO2. Following incubation, cells were washed once and resuspended in chemotaxis assay buffer (DMEM, 1 mg/ml BSA, 25 mM Hepes) at a density of 2×10^6 cells/ml. […] The filter plate ([…] pore size, PVP-free membrane) was snapped on over the filled wells and the monocytes were loaded onto the upper filter surface ([…] in 25 μl). […] At the conclusion of the test period, non-migrating cells were wiped off the upper filter surface and relative fluorescence units (RFUs) of the migrating cells from the lower surface determined by bottom reading in a spectrometer (M5 SpectraMax) at 485/530 nm (Ex/Em). Triplicate determinations were made and results are expressed as the mean Relative Fluorescence Units as depicted in FIG. 8.

[11] = tested on: plasma cytokines; test: Plasma cytokine measurements in patients treated with DAPTA (capillary electrophoresis and ELISA); assay type: in vivo, humans
Source text: The specific cytokines IL-1β, IL-10 and IL-12 have been identified as imbalanced following total knee replacement surgeries which increases risk for persistent post-operative pain. Measurement of these cytokines may be used to predict response to therapy, such as treatment by any of the peptides, salts thereof, or compositions of these, including those herein. Since the administration of the peptide DAPTA normalizes multiple plasma cytokines associated with PPSP then DAPTA and other analogs as we have described may be used to treat chronic pain conditions, specifically PPSP. Five HIV patients received DAPTA, 3 mgs/day, by metered nasal spray for 6 to 8 weeks (mean 7+0.6 wks). Patients were not taking other concurrent anti-pain or anti-retroviral therapies. At the beginning and end of the study period heparinized blood was collected and immediately clarified by centrifugation. Plasma aliquots were made and stored frozen at −70 C° for further testing. All sample testing was done on blinded samples at independent testing centers.
Cytokine measurements in patients treated with DAPTA were made after capillary electrophoresis isolation of individual cytokine peaks, followed by enzyme-linked immunoassay using specific antibodies. […] Separated chemical compounds appear as peaks with different migration times in an electropherogram. The purified sample peaks were individually collected and concentration determined by a quantitative enzyme-linked immunosorbent assay (ELISA) using specific antibodies to determine the analyte concentration.

[12] = partial nerve ligation and diabetic pain
[13] = plasma, five HIV patients, 3 mgs/day nasal spray, 6 to 8 weeks

CX3CR1, sequence (P49238 whole entry): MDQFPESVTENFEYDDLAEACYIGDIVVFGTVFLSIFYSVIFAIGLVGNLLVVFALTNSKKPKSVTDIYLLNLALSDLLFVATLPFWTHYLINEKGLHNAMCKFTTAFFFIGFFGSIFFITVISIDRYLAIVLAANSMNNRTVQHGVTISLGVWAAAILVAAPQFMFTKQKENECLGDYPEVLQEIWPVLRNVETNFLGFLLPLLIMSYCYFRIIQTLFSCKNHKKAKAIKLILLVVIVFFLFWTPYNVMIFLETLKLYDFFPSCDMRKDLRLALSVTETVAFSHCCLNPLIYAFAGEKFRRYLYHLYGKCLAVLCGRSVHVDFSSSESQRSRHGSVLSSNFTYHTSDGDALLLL

## C[C@H](O)[C@@H](N)C(=O)N[C@@H](C(=O)N[C@H](CC(N)=O)C(=O)N[C@H](Cc1ccc(O)cc1)C(=O)N[C@@H](C(=O)O)[C@H](C)O)[C@H](C)O [RAP-103, All D-peptide-Thr-Thr-Asn-Tyr-Thr]
[1]; FIG. 2A
  brain entry by oral compared to IV dosing: preferentially entered the brain by oral compared to IV dosing
[1]; IV or oral gavage dosing
  brain entry: quickly entered the brain
[1]; IV or oral gavage dosing, FIG. 2A
  persistence at therapeutic levels in brain: at least 24 hrs
[1]; in vivo
  brain entry compared to plasma levels: preferentially enters the brain compared to plasma levels
[2]; 1 mg/kg
  Cmax and AUC 0-T in male versus female monkeys: comparable
[2]; over seven days after dosing
  RAP-103-related changes in clinical observations or body weights: no acute toxicity
[2]; single IV dose 1 mg/Kg, FIG. 2B
  time post-dose at which drug in plasma was still measurable at anticipated therapeutic levels: ≥ 96 h
[3]; 0.004 mg/kg daily oral
  effect on mechanical allodynia by dose: not
[3]; 0.02 mg/kg daily oral
  effect on mechanical allodynia by dose: effective
[3]; 0.1 mg/kg daily oral
  effect on mechanical allodynia by dose: effective
[3]; 0.5 mg/kg daily oral
  effect on mechanical allodynia by dose: effective
[3]; daily oral gavage
  time until reversal of hypersensitivity became significant: 24 to 48 h
[4]
  cold allodynia: reductions
[5]
  increase of the potency of morphine: over 2 fold
[6]
  stress and pain in patient suffering from PPSP: reduced
[7]
  subject's weight: decreases
[8]; in vivo, read-out: half-life (HL) elimination (converted)
  half-life: ~2.7 h
[8]
  plasma bioavailability: significant plasma bioavailability
[9]; neuropathic pain, FIG. 5
  chemokine receptor CCR2: lowered
  chemokine receptor CCR5: lowered
[9]; oral administration for 7 days versus vehicle (H20), FIG. 5
  spinal cord mRNA encoding cytokines and chemokines: reductions
[9]; [12]
  CCL3: significantly reduced
  IL-1β: significantly reduced
  TNFα: significantly reduced

## all-D-ASTTTNYT [RAP-310]
[10]; 0.01 pM
  CX3CR1 mediated human monocyte chemotaxis, % of control migration: 38 % of control migration
[10]; 1 pM
  CX3CR1 mediated human monocyte chemotaxis, % of control migration: 24 % of control migration

## dASTTTNYT-NH2 [DAPTA]
[11]; intranasal dosing, P<0.005
  cytokines IL-4, IL-10, IL-12 and IL-13: increased significantly
  plasma levels of IL-1β, IL-6, IL-8, and TNFα: significant reductions
[11]; plasma, **p < .005
  IL-1β % CHANGE BASELINE to POST-DRUG: −46%**
  IL-2 % CHANGE BASELINE to POST-DRUG: +395** %
  IL-4 % CHANGE BASELINE to POST-DRUG: +448** %
  IL-6 % CHANGE BASELINE to POST-DRUG: −28%**
  IL-8 % CHANGE BASELINE to POST-DRUG: −30%**
  IL-10 % CHANGE BASELINE to POST-DRUG: +350** %
  IL-12 % CHANGE BASELINE to POST-DRUG: +363** %
  IL-13 % CHANGE BASELINE to POST-DRUG: +416** %
  TNFα % CHANGE BASELINE to POST-DRUG: −23%**
[11]; [13]
  IL-1β CYTOKINE MEAN ± s.e.m. Post-Treatment: 174 ± 26 pgs/ml
  IL-2 CYTOKINE MEAN ± s.e.m. Post-Treatment: 57 ± 9 pgs/ml
  IL-4 CYTOKINE MEAN ± s.e.m. Post-Treatment: 28 ± 8 pgs/ml
  IL-6 CYTOKINE MEAN ± s.e.m. Post-Treatment: 130 ± 21 pgs/ml
  IL-8 CYTOKINE MEAN ± s.e.m. Post-Treatment: 144 ± 76 pgs/ml
  IL-10 CYTOKINE MEAN ± s.e.m. Post-Treatment: 45 ± 5 pgs/ml
  IL-12 CYTOKINE MEAN ± s.e.m. Post-Treatment: 33 ± 7 pgs/ml
  IL-13 CYTOKINE MEAN ± s.e.m. Post-Treatment: 30 ± 9 pgs/ml
  TNFα CYTOKINE MEAN ± s.e.m. Post-Treatment: 260 ± 67 pgs/ml
